Results on 2 compounds are retold here after BindingDB's records for patent US20240383893 (Haihe Biopharma, 2024).

Structures are written as SMILES.

Broadly, the IC50 is the concentration that inhibits the measured activity by half. A low value points to greater potency.

The target of this test is T1, Ectonucleotide pyrophosphatase/phosphodiesterase family member 1 (Homo sapiens, UniProt P22413).
T1 sequence (P22413 whole entry): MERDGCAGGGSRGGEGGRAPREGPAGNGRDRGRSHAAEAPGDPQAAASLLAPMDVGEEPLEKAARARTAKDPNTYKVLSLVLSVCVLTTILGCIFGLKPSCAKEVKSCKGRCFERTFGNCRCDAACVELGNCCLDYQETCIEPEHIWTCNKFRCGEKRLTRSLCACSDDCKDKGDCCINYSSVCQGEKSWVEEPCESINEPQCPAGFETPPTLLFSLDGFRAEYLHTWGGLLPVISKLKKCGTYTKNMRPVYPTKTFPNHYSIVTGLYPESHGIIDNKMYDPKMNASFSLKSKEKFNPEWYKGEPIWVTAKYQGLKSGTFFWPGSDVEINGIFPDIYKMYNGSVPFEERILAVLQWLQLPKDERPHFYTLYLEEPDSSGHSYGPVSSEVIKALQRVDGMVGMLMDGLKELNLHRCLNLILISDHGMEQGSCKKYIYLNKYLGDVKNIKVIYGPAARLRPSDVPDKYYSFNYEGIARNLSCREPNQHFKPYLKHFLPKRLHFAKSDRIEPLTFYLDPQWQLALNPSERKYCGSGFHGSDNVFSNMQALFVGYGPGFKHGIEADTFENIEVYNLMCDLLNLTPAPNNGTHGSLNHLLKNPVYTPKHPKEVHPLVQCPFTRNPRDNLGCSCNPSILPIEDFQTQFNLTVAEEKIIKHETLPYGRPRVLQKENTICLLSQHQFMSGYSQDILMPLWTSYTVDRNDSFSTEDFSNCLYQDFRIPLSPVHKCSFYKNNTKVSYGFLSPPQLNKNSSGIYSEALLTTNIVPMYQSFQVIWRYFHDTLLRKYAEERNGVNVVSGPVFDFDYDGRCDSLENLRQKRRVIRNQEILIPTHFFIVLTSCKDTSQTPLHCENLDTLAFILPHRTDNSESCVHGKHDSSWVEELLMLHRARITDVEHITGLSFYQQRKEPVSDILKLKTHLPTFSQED
Put plainly: ENPP1 Inhibitory Activity Assay.

In the case of `COc1ccc2c(Oc3ccc(C(C(=O)NO)C(C)C)cc3)ccnc2n1` (configuration not stated) [US20240383893, Compound 130], the half-maximal inhibitory concentration (IC50) worked out at 6.9 nM.
Regarding `COc1ccc2c(Oc3ccc(C(C)(C(=O)NO)C(C)C)cc3)ccnc2n1` (configuration not stated) [US20240383893, Compound 165], the half-inhibitory concentration (IC50) turned out to be 23 nM.
